Assays:
GalU [1] = target: T1, GalU (Shigella sonnei, UniProt Q3Z0V1); assay: microscale thermophoresis (MST) with purified GalU; supported by malachite green enzyme inhibition ([…] decrease at […]); assay type: binding
T1 construct: intact galU gene in pET28a (His-tagged)

GalU [2] = target: T2, GalU (Klebsiella oxytoca, UniProt A0A163UX09); assay: microscale thermophoresis (MST) with expressed GalU homolog; assay type: binding
T2 construct: galUK.o in pET28a
T2 sequence (A0A163UX09 entry or part of it): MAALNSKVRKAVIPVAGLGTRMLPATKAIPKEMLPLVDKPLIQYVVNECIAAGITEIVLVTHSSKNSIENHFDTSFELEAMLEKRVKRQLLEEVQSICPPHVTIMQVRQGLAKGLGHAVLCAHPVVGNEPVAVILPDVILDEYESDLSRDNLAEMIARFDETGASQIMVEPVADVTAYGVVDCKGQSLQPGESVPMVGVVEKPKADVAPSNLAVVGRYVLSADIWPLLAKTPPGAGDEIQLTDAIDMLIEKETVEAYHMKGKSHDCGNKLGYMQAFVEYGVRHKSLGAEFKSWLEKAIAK

T1 sequence (Q3Z0V1 entry or part of it): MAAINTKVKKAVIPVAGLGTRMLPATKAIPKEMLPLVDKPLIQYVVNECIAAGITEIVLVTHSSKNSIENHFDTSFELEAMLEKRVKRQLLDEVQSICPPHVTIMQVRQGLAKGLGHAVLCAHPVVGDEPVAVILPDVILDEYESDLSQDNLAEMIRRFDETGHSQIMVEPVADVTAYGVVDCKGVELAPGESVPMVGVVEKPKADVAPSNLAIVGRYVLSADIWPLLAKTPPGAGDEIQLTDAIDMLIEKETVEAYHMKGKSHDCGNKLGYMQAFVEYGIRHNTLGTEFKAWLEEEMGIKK

## O=[N+]([O-])c1ccc2c(c1)S(=O)(=O)C=C2 [Stattic]
GalU [1]
  Kd: 20 ± 0.35 µM
GalU [2]
  Kd: 50 ± 0.25 µM

— paper PMC10734500, “Anti-virulence and bactericidal activities of Stattic against Shigella sonnei” (Applied and Environmental Microbiology, 2023)
